Laboratory results from patent EP2571508B1, “PROCESS FOR PRODUCING A SHRIMP HYDROLYSATE USING ELECTRODIALYSIS” (Marealis AS, priority 2010, dated 2011).
Peptide text beside a SMILES is read from it.

Target: T1, ACE (Oryctolagus cuniculus, UniProt P12822)
T1 construct: purchased Sigma A 6778
T1 sequence (P12822 34-1310): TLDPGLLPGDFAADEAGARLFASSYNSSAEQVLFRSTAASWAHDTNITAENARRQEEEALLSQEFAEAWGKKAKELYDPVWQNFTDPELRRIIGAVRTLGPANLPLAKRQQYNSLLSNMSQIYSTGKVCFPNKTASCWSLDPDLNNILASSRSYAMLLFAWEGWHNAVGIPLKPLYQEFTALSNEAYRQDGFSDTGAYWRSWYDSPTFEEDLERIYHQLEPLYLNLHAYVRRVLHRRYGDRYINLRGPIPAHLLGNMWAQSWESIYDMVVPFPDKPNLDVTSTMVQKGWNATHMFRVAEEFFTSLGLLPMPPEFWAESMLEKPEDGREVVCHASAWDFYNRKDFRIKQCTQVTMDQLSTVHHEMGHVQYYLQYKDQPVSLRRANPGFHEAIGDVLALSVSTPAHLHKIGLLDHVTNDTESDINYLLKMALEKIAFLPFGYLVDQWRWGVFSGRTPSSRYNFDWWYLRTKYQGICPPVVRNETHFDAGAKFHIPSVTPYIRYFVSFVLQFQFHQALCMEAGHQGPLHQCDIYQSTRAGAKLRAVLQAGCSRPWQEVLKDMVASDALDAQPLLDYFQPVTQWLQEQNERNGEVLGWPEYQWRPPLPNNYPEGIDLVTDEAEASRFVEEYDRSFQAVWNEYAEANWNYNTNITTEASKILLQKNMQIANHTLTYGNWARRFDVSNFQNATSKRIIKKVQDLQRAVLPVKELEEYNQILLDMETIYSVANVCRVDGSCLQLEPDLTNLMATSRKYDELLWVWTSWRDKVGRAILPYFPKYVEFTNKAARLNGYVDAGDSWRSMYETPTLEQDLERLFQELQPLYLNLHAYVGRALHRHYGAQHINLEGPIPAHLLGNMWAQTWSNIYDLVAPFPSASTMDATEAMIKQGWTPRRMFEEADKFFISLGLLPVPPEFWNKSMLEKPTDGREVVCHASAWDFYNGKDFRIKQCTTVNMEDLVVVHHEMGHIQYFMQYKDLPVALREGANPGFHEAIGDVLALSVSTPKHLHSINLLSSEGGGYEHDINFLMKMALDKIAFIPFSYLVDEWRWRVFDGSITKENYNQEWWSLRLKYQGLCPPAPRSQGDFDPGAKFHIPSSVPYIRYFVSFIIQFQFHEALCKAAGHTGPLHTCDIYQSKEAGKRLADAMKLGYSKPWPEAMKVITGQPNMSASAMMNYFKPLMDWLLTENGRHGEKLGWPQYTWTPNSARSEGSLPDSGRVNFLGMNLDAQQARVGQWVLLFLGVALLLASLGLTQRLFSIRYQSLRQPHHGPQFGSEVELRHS
Assay: ACE-inhibitory activity, Cushman and Cheung method (hippuric acid from HHL)
Type: biochemical
Conditions: synthesized peptides
Text: The hydrolysate of the present invention has ACE-inhibitory activity. ACE-inhibitory activity may be assayed using known methods, for example based on the method reported by Cushman and Cheung (1971) by measuring the end product hippuric acid (HA) from the enzymatic reaction between ACE (Sigma A 6778) and the substrate HHL (Sigma H 1635). (CUSHMAN, D. W. & CHEUNG, H. S. (1971). Concentrations of Angiotensin-Converting Enzyme in Tissues of Rat. Biochimica Et Biophysica Acta 250(1), 261-265). A different suitable assay is disclosed by Vermeirssen et al. (2002), J. Biochem Biophys. Methods 51 (2002), pages 75-87. Briefly, this is a spectrophotometric method in which ACE inhibition is measured using the substrate furanacryloyl-Phe-Gly-Gly and rabbit lung acetone extract as the ACE source. The IC50 may be determined.
The peptide composition of the RP-HPLC fractions was analysed using LCMS (liquid chromatography mass spectrometry) and individual peptides were sequenced using LC-MS/MS (liquid chromatography - tandem mass spectrometry). Peptides having the sequences identified by LC-MS/MS were then synthesized and analysed. Molecular weight and pl were calculated by ExPASy Proteomics Server. ACE-inhibitory activity was determined based on the Cushman and Cheung method mentioned elsewhere herein and expressed as the IC50 (concentration that inhibits 50% of enzyme activity).

SMILES	IC50 [µM]
NCCCC[C@H](NC(=O)[C@@H]1CCCN1C(=O)[C@@H](N)CC(N)=O)C(=O)O [NPK*] (H-Asn-Pro-Lys-OH)	> 300
CC(C)C[C@H](N)C(=O)N[C@H](C(=O)N[C@@H](C)C(=O)N[C@@H](CCCCN)C(=O)O)C(C)C [LVAK] (H-LVAK-OH)	> 300
CC(C)C[C@H](N)C(=O)N[C@H](C(=O)N[C@@H](C)C(=O)N[C@@H](Cc1c[nH]cn1)C(=O)O)C(C)C [LVAH] (H-LVAH-OH)	> 300
CC(C)C[C@H](NC(=O)[C@@H](N)CC(C)C)C(=O)N[C@H](C(=O)N[C@@H](CCCCN)C(=O)O)[C@@H](C)O [LLTK] (H-LLTK-OH)	> 300
CC(C)C[C@H](N)C(=O)N[C@@H](CC(N)=O)C(=O)N1CCC[C@H]1C(=O)N[C@@H](CCCCN)C(=O)O [LNPK] (H-LNPK-OH)	> 300
CC(C)C[C@H](NC(=O)[C@@H](N)C(C)C)C(=O)N[C@@H](C)C(=O)N[C@@H](Cc1c[nH]cn1)C(=O)O [VLAH*] (H-VLAH-OH)	> 300
CC(C)C[C@H](NC(=O)[C@H](C)N)C(=O)N1CCC[C@H]1C(=O)N[C@@H](Cc1c[nH]cn1)C(=O)O [ALPH] (H-ALPH-OH)	> 300
CC(C)C[C@H](NC(=O)[C@H](CC(C)C)NC(=O)[C@@H](N)CC(C)C)C(=O)N[C@@H](CCCCN)C(=O)O [LLLK] (H-LLLK-OH)	> 300

Other lines, results leading:

IC50 [µM]	SMILES
> 300	CC(C)[C@H](NC(=O)[C@@H](N)CC(N)=O)C(=O)N[C@@H](Cc1ccc(O)cc1)C(=O)O [NVY] (H-Asn-Val-Tyr-OH)
460	CC(C)C[C@H](N)C(=O)N[C@@H](Cc1ccccc1)C(=O)O [LF] (H-Leu-Phe-OH)
200	CC(C)C[C@H](NC(=O)[C@@H](N)CCCCN)C(=O)N1CCC[C@H]1C(=O)O [KLP] (H-Lys-Leu-Pro-OH)
380	CC(C)C[C@H](NC(=O)[C@@H](N)Cc1ccccc1)C(=O)O [FL] (H-Phe-Leu-OH)
250	CC(C)C[C@H](N)C(=O)N[C@@H](Cc1ccc(O)cc1)C(=O)N[C@@H](CCCCN)C(=O)O [LYK] (H-Leu-Tyr-Lys-OH)
225	CC(C)C[C@H](N)C(=O)N[C@H](C(=O)N[C@@H](CCCCN)C(=O)O)C(C)C [LVK] (H-Leu-Val-Lys-OH)
200	CC(C)C[C@H](N)C(=O)N[C@@H](CC(N)=O)C(=O)N[C@@H](C)C(=O)O [LNA*] (H-Leu-Asn-Ala-OH)
